Data on 10 compounds can be found in ChEMBL document CHEMBL4627252, “Synthesis and biological evaluation of bis-N2,N2'-(4-hydroxycoumarin-3-yl)ethylidene]-2,3-dihydroxysuccinodihydrazides” (Bioorg Med Chem Lett, 2020).

≈ marks a conversion by molar mass, not a printed value.

Data set [1] has as its system Trypanosoma brucei brucei. In words: Antitrypanosomal activity against Trypanosoma brucei brucei assessed as parasite viability at 20 uM relative to control. It counts as functional.
Data set [2] has as its system Mycobacterium tuberculosis. Briefly: Antimycobacterial activity against Mycobacterium tuberculosis H37Rv assessed as inhibition of bacterial growth by measuring calculated MIC90 measured after 14 days by green fluorescent protein based microplate assay. It counts as functional. To be noted: 336 h.
The next data set relates to Plasmodium falciparum. In words: Antimalarial activity against Plasmodium falciparum 3D7 infected in human erythrocytes assessed as parasite viability at 20 uM incubated for 48 hrs by parasite LDH release based colorimetric assay relative to control. It counts as functional. On the technique in general: Release of lactate dehydrogenase indicates damage to the cell membrane.

In data set [3] the target is Human immunodeficiency virus type 1 protease (Human immunodeficiency virus 1) (UniProt Q72874). Briefly: Inhibition of HIV-1 protease at 20 uM relative to control.
For data set [4], the system named is Mycobacterium tuberculosis. Briefly: Antimycobacterial activity against Mycobacterium tuberculosis H37Rv assessed as inhibition of bacterial growth by measuring visual MIC90 measured after 14 days by green fluorescent protein based microplate assay. It counts as functional. To be noted: 336 h.
Data set [5] is described as follows: Cytotoxicity against human HeLa cells assessed as cell viability at 20 uM incubated for 24 hrs by resazurin dye base fluorescence analysis relative to control. It counts as cell-based. The conditions noted are these: read-out: Activity. In general terms: Resazurin is reduced to fluorescent resorufin, in cell work by metabolically active cells.
Data set [6] addresses Human immunodeficiency virus type 1 integrase (Human immunodeficiency virus 1, UniProt Q7ZJM1). In words: Inhibition of HIV-1 integrase.
In the next data set the test system is HeLa. Briefly: Cytotoxicity against human HeLa cells assessed as inhibition of cell viability incubated for 24 hrs by resazurin dye based fluorescence analysis.
In data set [7] the test system is Trypanosoma brucei brucei. Briefly: Antitrypanosomal activity against Trypanosoma brucei brucei assessed as inhibition of parasite viability. It counts as functional, organism-based.

Sequence of Human immunodeficiency virus type 1 integrase (Q7ZJM1 whole entry): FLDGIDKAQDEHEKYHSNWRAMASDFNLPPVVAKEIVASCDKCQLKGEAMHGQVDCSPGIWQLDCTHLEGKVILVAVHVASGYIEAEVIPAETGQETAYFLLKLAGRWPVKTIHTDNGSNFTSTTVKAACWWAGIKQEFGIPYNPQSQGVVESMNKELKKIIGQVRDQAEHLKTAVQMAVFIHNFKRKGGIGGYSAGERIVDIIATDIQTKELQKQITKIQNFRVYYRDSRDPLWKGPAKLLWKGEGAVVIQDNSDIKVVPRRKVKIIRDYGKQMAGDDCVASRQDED

As for `C/C(=N\NC(=O)C(O)C(O)C(=O)N/N=C(\C)c1c(O)c2cc(C)ccc2oc1=O)c1c(O)c2cc(C)ccc2oc1=O` (racemic), the Activity (in data set [1]; in the data set on Plasmodium falciparum) was 100% throughout. For the same compound, the MIC90 in data set [2] and in data set [4] was over 125 µM each time. Further, the inhibition (commonly how much of the control response was suppressed) in [3] turned out to be 8.3%. Further, the viability at 24 h, 20 µM in data set [5] was determined as 85.3%.
For `C/C(=N\NC(=O)C(O)C(O)C(=O)N/N=C(\C)c1c(O)c2cc(F)ccc2oc1=O)c1c(O)c2cc(F)ccc2oc1=O` (racemic), the Activity was 32.8% in data set [1] and 92.8% with Plasmodium falciparum. Besides, the MIC90 in data set [2] and in [4] was over 125 µM each time. This compound returned an inhibition in [3] of 0%. Besides, the viability at 24 h, 20 µM in [5] came out at 84.6%.
For the compound `COc1ccc2oc(=O)c(/C(C)=N/NC(=O)C(O)C(O)C(=O)N/N=C(\C)c3c(O)c4cc(OC)ccc4oc3=O)c(O)c2c1` (racemic), the Activity (in data set [1]; in the data set with Plasmodium falciparum) was 100% in each case. Besides, the MIC90 in data set [2] and in data set [4] was over 125 µM in each case. The compound further yielded an inhibition in [3] of 0%. Moreover, the viability at 24 h, 20 µM in [5] was 84.6%.
Consider `C/C(=N\NC(=O)C(O)C(O)C(=O)N/N=C(\C)c1c(O)c2ccccc2oc1=O)c1c(O)c2ccccc2oc1=O` (racemic), for which the Activity in [1] is recorded as 42.7%; in the data set on Plasmodium falciparum, 90.7%. Besides, the MIC90 in [2] and in data set [4] was over 125 µM each time. In [3], the inhibition was found to be 0%. Moreover, the IC50 (as a rule, the point on the concentration scale where inhibition reaches its midpoint) in [6] amounted to 3500 nM. Besides, in data set [5], the viability at 24 h, 20 µM was 78.4%.
As for `C/C(=N\NC(=O)C(O)C(O)C(=O)N/N=C(\C)c1c(O)c2cc(Br)ccc2oc1=O)c1c(O)c2cc(Br)ccc2oc1=O` (racemic), the Activity (in data set [1]; in the data set with Plasmodium falciparum) was 100% in each case. The figures for the MIC90 in [2] and in data set [4] were 18.9 µM (≈ 13.4 µg/mL) and 15.6 µM (≈ 11.1 µg/mL), respectively. The compound also registered an inhibition in [3] of 0%. The viability at 24 h, 20 µM in data set [5] is 100%.
For the compound `C/C(=N\NC(=O)C(O)C(O)C(=O)N/N=C(\C)c1c(O)c2cc(Cl)ccc2oc1=O)c1c(O)c2cc(Cl)ccc2oc1=O` (racemic), the Activity was 44.6% in data set [1] and 93.8% in the data set on Plasmodium falciparum. For the same compound, the MIC90 (in general, the lowest concentration that inhibits either 90% of growth or 90% of the strains tested, depending on the study) in data set [2] is 54.2 µM (≈ 33.6 µg/mL); in data set [4], 31.2 µM (≈ 19.4 µg/mL). Also, the inhibition in data set [3] was determined as 0%. For the same compound, the viability at 24 h, 20 µM in data set [5] was 100%.
For the compound `C/C(=N\NC(=O)C(O)C(O)C(=O)N/N=C(\C)c1c(O)c2c(ccc3ccccc32)oc1=O)c1c(O)c2c(ccc3ccccc32)oc1=O` (racemic), the Activity (in data set [1]; in the data set on Plasmodium falciparum) was 100% throughout. For the same compound, the values for the MIC90 in data set [2] and in data set [4] were 29.5 µM (≈ 19.2 µg/mL) and 31.2 µM (≈ 20.3 µg/mL), respectively. Moreover, the inhibition in data set [3] was found to be 0%. Besides, in [5], the viability at 24 h, 20 µM worked out at 98.1%.
With `CC[C@H]1CN2CCc3cc(OC)c(OC)cc3[C@@H]2C[C@@H]1C[C@H]1NCCc2cc(OC)c(OC)cc21` [EMETINE], in the data set on HeLa, the IC50 is 13 nM.
For `N=C(N)c1ccc(OCCCCCOc2ccc(C(=N)N)cc2)cc1` [PENTAMIDINE], the IC50 in [7] stood at 39 nM.
With `CO[C@H]1/C=C/O[C@@]2(C)Oc3c(C)c(O)c4c(O)c(c(/C=N/N5CCN(C)CC5)c(O)c4c3C2=O)NC(=O)/C(C)=C\C=C\[C@H](C)[C@H](O)[C@@H](C)[C@@H](O)[C@@H](C)[C@H](OC(C)=O)[C@@H]1C` [RIFAMPIN], the MIC90 in data set [2] was 0.007 µM (≈ 0.00576 µg/mL); in data set [4], 0.019 µM (≈ 0.0156 µg/mL).
